# Results reported in patent US20160353738A1, “SYNERGISTIC HERBICIDAL COMPOSITION CONTAINING PENOXSULAM, TRICLOPYR AND BISPYRIBAC” (Dow AgroSciences LLC, priority 2014, published 2016).
# Columns and labels:
# [1] = tested on: Rice (Oryza Sativa, ORYSA); assay: Safening activity to rice in the field, visual crop injury; details: 50 g ai/ha
# Protocol: The treated plots and control plots were rated blind at various intervals after application.
# Colby's equation was used to determine the herbicidal effects expected from the mixtures (Colby, S. R. Calculation of the synergistic and antagonistic response of herbicide combinations. Weeds 1967, 15, 20-22).
# However, the experiments described herein were performed such that active ingredients A and B were combined and only the efficacy of the combination was determined. As such, Colby's equation simplifies to […]
# [2] = tested on: Rottboellia exaltata (Guineafowlgrass, ROOEX); assay: Postemergence herbicidal activity of mixtures in the field (rice small plots), visual weed control; assay type: in vivo; details: 50 g ai/ha
# Source text: (§1) Bispyribac was used as Nominee® 100SC or Nominee® 400SC.
# (§2) As such, Colby's equation simplifies to […]
# [3] = tested on: Echinochloa colonum (L.) LINK (junglerice, ECHCO); assay: as above; assay type: in vivo; details: 30 DAA, 52 g ai/ha
# Source text: as §1, §2
# [4] = tested on: Ischaemum rugosum (Saramollagrass, ISCRU); assay: as above; assay type: in vivo; details: 50 g ai/ha
# Source text: as §1, §2
# [5] = tested on: Digitaria species (DIGSS); assay: as above; assay type: in vivo; details: 50 g ai/ha
# Source text: as §1, §2
smiles,measurement,setting,value
"COc1cc(OC)nc(Oc2cccc(Oc3nc(OC)cc(OC)n3)c2C(=O)[O-])n1.[Na+] [Bispyribac-Sodium, sodium 2,6-bis((4,6-dimethoxypyrimidin-2-yl)oxy)benzoate]",Percent (%) Crop Injury,[1]; 6 DAA,2.2%
same,Percent (%) Crop Injury,[1]; 17 DAA,0.9%
same,Percent (%) Crop Injury,[1]; 27 DAA,3%
same,Percent (%) Visual Control,[2]; 16 DAA,87.3%
same,Percent (%) Visual Control,[2]; 32 DAA,69.5%
same,Percent (%) Visual Control,[3],86.25%
same,Percent (%) Visual Control,[4]; 6 DAA,0%
same,Percent (%) Visual Control,[4]; 12 DAA,30%
same,Percent (%) Visual Control,[4]; 16 DAA,46.8%
same,Percent (%) Visual Control,[4]; 17 DAA,0%
same,Percent (%) Visual Control,[4]; 27 DAA,9.25%
same,Percent (%) Visual Control,[4]; 32 DAA,0%
same,Percent (%) Visual Control,[4]; 40 DAA,0%
same,Percent (%) Visual Control,[5]; 6 DAA,93%
same,Percent (%) Visual Control,[5]; 17 DAA,88%
